According to patent publication US20230302010A1, “2-((4S)-6-(4-CHLOROPHENYL)-1-METHYL-4H-BENZO[C]ISOXAZOLO[4,5-E]AZEPIN-4-YL)ACETAMIDE FOR TREATING THROMBOCYTHEMIA” (Constellation Pharmaceuticals, Inc., priority 2020, published 2023):
Where two headings read alike, the source gives them in different places.

What was measured:
[1] = system: CD34+ cells isolated from healthy donor bone marrow; test: Megakaryocyte differentiation of CD34+ cells (FACS, CD41a expression); format: cell-based; details: 14 days, FACS (FIG. 2)
Protocol: The effects of Compound 1 on megakaryocyte differentiation and proliferation were evaluated using CD34+ cells isolated from healthy donor bone marrow (data on file). The CD34+ cells were grown in megakaryocyte differentiation serum-free stem cell differentiation base medium with a megakaryocyte-driving cytokine cocktail for 14 days with DMSO or Compound 1 at concentrations ranging from 3 nM to 500 nM. The cells were then stained for CD34 (progenitor marker), CD45 (leukocyte marker) and CD41a (mature megakaryocyte marker) and assessed by FACS for viability and marker expression. CD41a expression and cell size were used as markers of megakaryocyte differentiation. […] The shift from high to low CD41a expression began at approximately 50 nM, with pronounced effects observed at 200 to 500 nM, as shown in FIG. 2.

[2] = system: IL6 release from THP-1 acute leukemia cells; test: IL6 release from lipopolysaccharide-treated THP-1 cells; format: cell-based; details: Homo sapiens; THP-1 cells exposed to lipopolysaccharide, then compound for 16 hours; read-out: IL6 release inhibition IC50
Protocol: Compound 1 was assessed for its ability to suppress the expression of NF-κB target genes in two experiments. In one experiment, THP-1 acute leukemia cell lines were exposed to lipopolysaccharide treatment and then Compound 1 for 16 hours. […] In the other experiment, the ability of Compound 1 to suppress both IL6 and IL10 expression in TMD8 ABC-DLBCL cells was investigated (data on file). TMD8 cells were incubated with DMSO or 1.6 μM Compound 1 for 6 or 24 hours. RNA was then extracted from the cells and quantified using qRT-PCR.

[3] = system: patients with high-risk ET; details: cited from earlier work

Row | IC50 [2] | Structure (SMILES) | concentration at which shift from high to low CD41a expression began [1] | survival from the beginning of treatment ([3]; 14-year retrospective study, 166 high-risk ET patients) | patients who died ([3]; 166 high-risk ET patients treated for a median of 4.5 years, median follow-up of seven years from diagnosis) | 10-year overall survival ([3]; patients who achieved a complete response) | 10-year overall survival ([3]; patients with HU resistance)
1 | 0.069 µM | Cc1noc2c1-c1ccccc1C(c1ccc(Cl)cc1)=N[C@H]2CC(N)=O [Compound 1, 2-((4S)-6-(4-chlorophenyl)-1-methyl-4H-benzo[c]isoxazolo[4,5-e]azepin-4-yl)acetamide] | approximately 50 nM |  |  |  | 
2 |  | NC(=O)NO [HU, hydroxyurea] |  | 65% | 23% | 79% | 26%
